From ChEMBL document CHEMBL5338741, “Discovery of an In Vivo Chemical Probe for BCL6 Inhibition by Optimization of Tricyclic Quinolinones” (J Med Chem, 2023)
pIC50: −log10 of the molar value.

Experiments:
[1] = biological target: BCL-6/NCOR2 (Homo sapiens) (UniProt Q9Y618+P41182); details: HEK293T, time 6.0 hrs
BCL-6/NCOR2 = BCL-6/NCOR2 (Homo sapiens, UniProt P41182); assay type: cell-based, HEK293T
[2] = biological target: B-cell lymphoma 6 protein (Homo sapiens, UniProt P41182)

Chain of BCL-6/NCOR2 (Homo sapiens) (Q9Y618 whole entry, looked up, other chains not shown): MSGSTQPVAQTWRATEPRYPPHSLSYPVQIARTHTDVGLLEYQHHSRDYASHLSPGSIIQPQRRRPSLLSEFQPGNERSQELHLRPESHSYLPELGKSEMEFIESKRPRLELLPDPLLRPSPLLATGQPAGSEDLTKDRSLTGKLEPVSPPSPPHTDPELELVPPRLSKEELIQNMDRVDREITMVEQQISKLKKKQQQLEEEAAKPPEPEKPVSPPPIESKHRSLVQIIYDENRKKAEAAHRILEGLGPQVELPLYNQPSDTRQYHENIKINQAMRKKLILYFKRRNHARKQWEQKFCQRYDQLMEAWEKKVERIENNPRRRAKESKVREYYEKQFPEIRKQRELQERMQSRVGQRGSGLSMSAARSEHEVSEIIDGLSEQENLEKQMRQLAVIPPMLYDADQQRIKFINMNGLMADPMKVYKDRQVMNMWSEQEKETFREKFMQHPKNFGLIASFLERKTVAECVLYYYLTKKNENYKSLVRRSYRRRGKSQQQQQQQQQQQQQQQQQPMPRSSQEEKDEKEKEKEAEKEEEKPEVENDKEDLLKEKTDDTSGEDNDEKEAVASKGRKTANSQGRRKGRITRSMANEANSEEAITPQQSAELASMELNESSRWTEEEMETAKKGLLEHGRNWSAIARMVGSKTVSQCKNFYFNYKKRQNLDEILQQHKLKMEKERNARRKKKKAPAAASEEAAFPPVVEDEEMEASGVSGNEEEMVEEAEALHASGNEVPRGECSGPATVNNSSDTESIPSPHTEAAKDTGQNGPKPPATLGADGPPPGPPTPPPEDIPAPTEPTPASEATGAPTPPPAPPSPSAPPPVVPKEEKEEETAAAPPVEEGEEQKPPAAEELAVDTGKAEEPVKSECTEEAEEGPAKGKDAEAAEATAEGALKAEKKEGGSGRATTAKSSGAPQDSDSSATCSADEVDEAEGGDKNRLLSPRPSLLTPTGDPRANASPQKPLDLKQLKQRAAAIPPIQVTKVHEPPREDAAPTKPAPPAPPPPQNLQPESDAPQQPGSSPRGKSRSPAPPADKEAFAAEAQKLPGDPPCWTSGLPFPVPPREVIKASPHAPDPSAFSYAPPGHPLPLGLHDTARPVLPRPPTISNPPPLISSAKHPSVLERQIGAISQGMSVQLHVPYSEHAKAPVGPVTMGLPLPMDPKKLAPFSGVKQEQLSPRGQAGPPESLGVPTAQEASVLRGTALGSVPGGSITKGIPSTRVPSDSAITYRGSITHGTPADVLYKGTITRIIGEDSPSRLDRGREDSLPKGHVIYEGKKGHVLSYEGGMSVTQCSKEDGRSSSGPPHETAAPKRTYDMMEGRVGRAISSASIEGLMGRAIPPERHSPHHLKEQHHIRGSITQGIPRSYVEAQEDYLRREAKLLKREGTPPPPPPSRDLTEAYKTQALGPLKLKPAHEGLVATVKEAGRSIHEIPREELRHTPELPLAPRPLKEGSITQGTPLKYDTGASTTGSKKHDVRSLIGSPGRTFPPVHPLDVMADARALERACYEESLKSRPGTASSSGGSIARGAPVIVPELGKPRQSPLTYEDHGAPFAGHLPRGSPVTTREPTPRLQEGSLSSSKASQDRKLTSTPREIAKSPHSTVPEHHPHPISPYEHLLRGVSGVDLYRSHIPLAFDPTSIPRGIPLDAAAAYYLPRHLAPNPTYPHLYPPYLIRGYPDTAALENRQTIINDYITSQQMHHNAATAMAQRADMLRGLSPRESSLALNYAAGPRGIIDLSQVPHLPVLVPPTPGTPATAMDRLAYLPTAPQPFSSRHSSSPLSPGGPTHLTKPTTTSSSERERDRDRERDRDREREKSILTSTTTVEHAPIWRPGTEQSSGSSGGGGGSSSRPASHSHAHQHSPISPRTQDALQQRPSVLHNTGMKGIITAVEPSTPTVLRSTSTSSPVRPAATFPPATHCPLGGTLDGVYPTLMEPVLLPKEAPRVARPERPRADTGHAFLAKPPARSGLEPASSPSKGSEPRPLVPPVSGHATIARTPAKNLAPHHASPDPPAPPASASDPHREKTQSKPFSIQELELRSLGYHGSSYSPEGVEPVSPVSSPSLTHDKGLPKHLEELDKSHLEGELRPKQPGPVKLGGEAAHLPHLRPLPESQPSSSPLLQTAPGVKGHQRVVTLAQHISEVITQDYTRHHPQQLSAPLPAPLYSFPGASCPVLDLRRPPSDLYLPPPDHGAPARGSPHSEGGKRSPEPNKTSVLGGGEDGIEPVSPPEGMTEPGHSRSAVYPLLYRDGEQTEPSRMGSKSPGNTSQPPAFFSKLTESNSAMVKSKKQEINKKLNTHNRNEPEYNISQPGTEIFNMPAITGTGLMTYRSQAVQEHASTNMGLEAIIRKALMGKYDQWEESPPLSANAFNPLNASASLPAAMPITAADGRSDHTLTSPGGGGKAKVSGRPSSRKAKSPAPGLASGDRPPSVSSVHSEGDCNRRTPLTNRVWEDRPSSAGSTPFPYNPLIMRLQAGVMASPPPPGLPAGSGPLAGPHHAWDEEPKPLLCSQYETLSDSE

fIC50 [1]	fIC90 [1]	Compound	IC90 [1]	pIC50 (BCL-6/NCOR2)	pIC50 [2]
–	–	CC(=O)N1CC2CCC(C1)N2c1ncc(Cl)c(Nc2ccc3c(c2)c2c(c(=O)n3C)OCC(F)(F)[C@H](C3CC3)N2)n1	–	7.57	9.05
–	–	CC(=O)N1C2CCC1CN(c1ncc(Cl)c(Nc3ccc4c(c3)c3c(c(=O)n4C)OCC(F)(F)[C@H](C4CC4)N3)n1)C2	–	7.39	8.72
8.9 nM	50 nM	Cn1c(=O)c2c(c3cc(Nc4nc(N5CC(F)(F)C5)ncc4Cl)ccc31)N[C@@H](C1CC1)C(F)(F)CO2	–	–	–
6.8 nM	44 nM	Cn1c(=O)c2c(c3cc(Nc4ccnc(F)c4Cl)ccc31)N[C@@H](C1CC1)C(F)(F)CO2	–	–	–

Compound	fIC50 [1]	fIC90 [1]	IC90 [1]	pIC50 (BCL-6/NCOR2)	pIC50 [2]
Cn1c(=O)c2c(c3cc(Nc4nc(N5C6CCC5COC6)ncc4Cl)ccc31)N[C@@H](C1CC1)C(F)(F)CO2	143 nM	42 nM	3.2 nM	–	–
